# Results reported in the NIST ThermoML archive (doi:10.1021/je0201323).
# ± gives the expanded uncertainty stated by the source.
# How the values were obtained:
# [1] = xn = mol fraction of the nth substance listed; details: x1 = 1; for mass density: 101.3 kPa, Liquid, vibrating tube; for surface tension liquid-gas: Pendant drop shape
# [2] = for surface tension liquid-gas: Pendant drop shape; for mass density: 101.3 kPa, Liquid, vibrating tube
SMILES,surface tension liquid-gas ([2]; 287.81 K),surface tension liquid-gas ([2]; 297.82 K),surface tension liquid-gas ([2]; 307.86 K),surface tension liquid-gas ([2]; 317.86 K),surface tension liquid-gas ([2]; 327.88 K),mass density ([2]; 278.15 K),mass density ([2]; 283.15 K),mass density ([2]; 288.15 K),mass density ([2]; 293.15 K),mass density ([2]; 298.15 K),mass density ([2]; 303.15 K),mass density ([2]; 308.15 K),mass density ([2]; 313.15 K),mass density ([2]; 318.15 K),mass density ([2]; 323.15 K),mass density ([2]; 328.15 K),mass density ([2]; 333.15 K),surface tension liquid-gas ([2]; 337.88 K),other results
Cc1ccccc1 [toluene] + CN(C)C=O,,,,,,,,,,,,,,,,,,,mass density ([1]; 278.15 K): 880.3 ± 0.2 kg/m3; mass density ([1]; 283.15 K): 875.9 ± 0.2 kg/m3; surface tension liquid-gas ([1]; 287.81 K): 28.93 ± 0.31 mN/m; mass density ([1]; 288.15 K): 871.4 ± 0.2 kg/m3; mass density ([1]; 293.15 K): 866.9 ± 0.2 kg/m3; surface tension liquid-gas ([1]; 297.82 K): 27.76 ± 0.3 mN/m; mass density ([1]; 298.15 K): 862.4 ± 0.2 kg/m3; mass density ([1]; 303.15 K): 857.8 ± 0.2 kg/m3; surface tension liquid-gas ([1]; 307.86 K): 26.6 ± 0.29 mN/m; mass density ([1]; 308.15 K): 853.2 ± 0.2 kg/m3; mass density ([1]; 313.15 K): 848.6 ± 0.2 kg/m3; surface tension liquid-gas ([1]; 317.86 K): 25.46 ± 0.28 mN/m; mass density ([1]; 318.15 K): 843.9 ± 0.2 kg/m3; mass density ([1]; 323.15 K): 839.2 ± 0.2 kg/m3; surface tension liquid-gas ([1]; 327.88 K): 24.29 ± 0.29 mN/m; mass density ([1]; 328.15 K): 834.5 ± 0.2 kg/m3; mass density ([1]; 333.15 K): 829.8 ± 0.2 kg/m3
CC(C)=O [acetone],23.94 ± 0.27 mN/m,22.78 ± 0.26 mN/m,21.59 ± 0.25 mN/m,20.33 ± 0.24 mN/m,19.01 ± 0.23 mN/m,,,,,,,,,,,,,,
CCCCCCC [heptane] + Cc1ccccc1,,,,,,,,,,,,,,,,,,,mass density ([1]; 278.15 K): 696.3 ± 0.4 kg/m3; mass density ([1]; 283.15 K): 692.2 ± 0.4 kg/m3; surface tension liquid-gas ([1]; 287.81 K): 20.7 ± 0.26 mN/m; mass density ([1]; 288.15 K): 688 ± 0.4 kg/m3; mass density ([1]; 293.15 K): 683.8 ± 0.4 kg/m3; surface tension liquid-gas ([1]; 297.82 K): 19.63 ± 0.25 mN/m; mass density ([1]; 298.15 K): 679.5 ± 0.4 kg/m3; mass density ([1]; 303.15 K): 675.2 ± 0.4 kg/m3; surface tension liquid-gas ([1]; 307.86 K): 18.68 ± 0.24 mN/m; mass density ([1]; 308.15 K): 670.9 ± 0.4 kg/m3; mass density ([1]; 313.15 K): 666.5 ± 0.3 kg/m3; surface tension liquid-gas ([1]; 317.86 K): 17.76 ± 0.24 mN/m; mass density ([1]; 318.15 K): 662.1 ± 0.3 kg/m3; mass density ([1]; 323.15 K): 657.7 ± 0.3 kg/m3; surface tension liquid-gas ([1]; 327.88 K): 16.68 ± 0.23 mN/m; mass density ([1]; 328.15 K): 653.2 ± 0.3 kg/m3; mass density ([1]; 333.15 K): 648.7 ± 0.3 kg/m3
CCCCCCC [heptane],20.7 ± 0.26 mN/m,19.63 ± 0.25 mN/m,18.68 ± 0.24 mN/m,17.76 ± 0.24 mN/m,16.68 ± 0.23 mN/m,696.3 ± 0.4 kg/m3,692.2 ± 0.4 kg/m3,688 ± 0.4 kg/m3,683.8 ± 0.4 kg/m3,679.5 ± 0.4 kg/m3,675.2 ± 0.4 kg/m3,670.9 ± 0.4 kg/m3,666.5 ± 0.3 kg/m3,662.1 ± 0.3 kg/m3,657.7 ± 0.3 kg/m3,653.2 ± 0.3 kg/m3,648.7 ± 0.3 kg/m3,15.79 ± 0.22 mN/m,surface tension liquid-gas ([2]; 277.93 K): 21.73 ± 0.27 mN/m; surface tension liquid-gas ([2]; 282.83 K): 21.18 ± 0.26 mN/m; surface tension liquid-gas ([2]; 292.81 K): 20.17 ± 0.26 mN/m; surface tension liquid-gas ([2]; 302.83 K): 19.15 ± 0.25 mN/m; surface tension liquid-gas ([2]; 312.86 K): 18.17 ± 0.24 mN/m; surface tension liquid-gas ([2]; 322.86 K): 17.22 ± 0.23 mN/m; surface tension liquid-gas ([2]; 332.91 K): 16.21 ± 0.23 mN/m; surface tension liquid-gas ([2]; 342.92 K): 15.29 ± 0.22 mN/m
CN1CCCC1=O [N-methylpyrrolidone],,,,,,,,,,,,,,,,,,35.66 ± 0.36 mN/m,surface tension liquid-gas ([2]; 277.84 K): 42.61 ± 0.42 mN/m; surface tension liquid-gas ([2]; 287.8 K): 41.35 ± 0.41 mN/m; surface tension liquid-gas ([2]; 297.81 K): 40.25 ± 0.4 mN/m; surface tension liquid-gas ([2]; 307.85 K): 39.1 ± 0.39 mN/m; surface tension liquid-gas ([2]; 317.85 K): 37.91 ± 0.38 mN/m; surface tension liquid-gas ([2]; 327.89 K): 36.8 ± 0.37 mN/m
C1CCCCC1 [cyclohexane],25.34 ± 0.28 mN/m,24.2 ± 0.27 mN/m,23.02 ± 0.26 mN/m,21.84 ± 0.25 mN/m,20.71 ± 0.24 mN/m,,,,,,,,,,,,,,surface tension liquid-gas ([2]; 279.33 K): 26.37 ± 0.29 mN/m; surface tension liquid-gas ([2]; 282.82 K): 25.99 ± 0.29 mN/m; surface tension liquid-gas ([2]; 337.93 K): 19.57 ± 0.24 mN/m
Cc1ccccc1 [toluene],28.93 ± 0.31 mN/m,27.76 ± 0.3 mN/m,26.6 ± 0.29 mN/m,25.46 ± 0.28 mN/m,24.29 ± 0.27 mN/m,880.3 ± 0.2 kg/m3,875.9 ± 0.2 kg/m3,871.4 ± 0.2 kg/m3,866.9 ± 0.2 kg/m3,862.4 ± 0.2 kg/m3,857.8 ± 0.2 kg/m3,853.2 ± 0.2 kg/m3,848.6 ± 0.2 kg/m3,843.9 ± 0.2 kg/m3,839.2 ± 0.2 kg/m3,834.5 ± 0.2 kg/m3,829.8 ± 0.2 kg/m3,23.22 ± 0.26 mN/m,surface tension liquid-gas ([2]; 277.85 K): 30.11 ± 0.32 mN/m; surface tension liquid-gas ([2]; 302.83 K): 27.17 ± 0.3 mN/m; surface tension liquid-gas ([2]; 312.87 K): 26.03 ± 0.29 mN/m
CN(C)C=O [dimethylformamide],36.96 ± 0.38 mN/m,35.83 ± 0.37 mN/m,34.65 ± 0.36 mN/m,33.37 ± 0.35 mN/m,32.03 ± 0.34 mN/m,963 ± 0.3 kg/m3,958.3 ± 0.3 kg/m3,953.7 ± 0.3 kg/m3,949.1 ± 0.3 kg/m3,944.5 ± 0.3 kg/m3,939.9 ± 0.3 kg/m3,935.4 ± 0.3 kg/m3,930.9 ± 0.3 kg/m3,926.3 ± 0.3 kg/m3,921.7 ± 0.3 kg/m3,917.9 ± 0.2 kg/m3,913.2 ± 0.2 kg/m3,,surface tension liquid-gas ([2]; 277.85 K): 38.16 ± 0.39 mN/m; surface tension liquid-gas ([2]; 327.89 K): 32.03 ± 0.34 mN/m
